Measured values from patent publication US20160375439A1, “Apparatus and Methods for Single-Particle Isolation and Single-Particle Measurement” (priority 2015, published 2016).
“And” between values parts separate entries of the source, which are not always exact repeats. Equal entries are not always repeated. “Also recorded” adds a separate entry of the source. Where two headings read alike, the source gives them in different places.

Tests used:
22Rv1 cells [1] = assay: On-chip drug accumulation measurement (fluorescence) of anti-cancer drug alone in a single 22Rv1 cell; format: cell-based, human; settings: for corrected signal of DNR (Fi) / corrected signal of OG-PTX: single 22Rv1 cell; for corrected signal of DNR (Fi): FIG. 8a; for corrected signal of OG-PTX: FIG. 8b
Excerpt: After the cell was kept stationary, the medium was introduced into Reservoir D to induce a liquid flow to make sure the cell was stationary before running the drug accumulation experiment. An optical detection system was employed for simultaneous fluorescence measurement and bright-field imaging.^47,58
(§1) The procedure for drug accumulation measurement has previously been reported.^45-47 Briefly, the anti-cancer drug (i.e., DNR or OG-PTX) was introduced via Reservoir D and drug accumulation of the anti-cancer drug was measured in the single cell. […] DNR was first used for drug accumulation measurement as it had inherent fluorescence (λex=470 nm; λem=585 nm). Thereafter, paclitaxel that was fluorescently labelled by Oregon Green was examined (λex=492 nm; λem=524 nm), since paclitaxel was the commonly-used anti-cancer drug for prostate cancer treatment.
Drug accumulation was conducted in Chamber 2. In the first step, accumulation of the anti-cancer drug (i.e., DNR or OG-PTX) in the MDR single cell was measured in the absence of MDR inhibitor (FIG. 7a). The 22Rv1 cells naturally express the ABCG2 transporter, which actively transports drug molecules out of the cell.^50 As DNR is a well-known ABCG2 substrate,^51 the initial accumulation of DNR without the influence of any MDR inhibitor was low. […] When the cell was inside the window, the total fluorescent intensity (Ft) was measured; whereas the background (Fb) was measured when the cell was outside the window.^58, 59 Subtraction of the background (Fb) from the total fluorescent intensity (Ft) gave a corrected signal (Fi) representing the drug concentration inside the single prostate cancer cell.^45, 59
The experiment was continued using DNR at different concentrations (3.5, 7, 14, 35, 70, 350 μM) in order to determine the reasonable initial signal of drug accumulation in the cell. […] The signal obtained from DNR at 35 μM provided the optimal initial value. Similarly, other experiments were conducted on a single 22Rv1 cell by treating the cell with OG-PTX at different concentrations (0.3, 1.5, 3, 6, 30 μM). […] Therefore, the optimal fluorescence signal was obtained after treating the single cell with 3 μM of OG-PTX. After the optimization experiment for drug concentration, subsequent experiments were carried out with 35 μM of DNR or 3 μM of OG-PTX. […] A similar experiment was conducted on another single 22Rv1 cell by adding 3 μM of OG-PTX, indicating saturation in the fluorescent intensity (FIG. 8d).

22Rv1 cells [2] = assay: Effect of MDR inhibitors on DNR accumulation in single 22Rv1 cell; format: cell-based, human
22Rv1 cells [3] = format: cell-based, human; settings: for a2 (pre-exponential factor, normalized fluorescence plateau) / b2: same single cell
Excerpt: We previously reported that a mono-exponential drug uptake model could be applied to fit the experimental data in order to compare drug accumulation kinetics in MDR cells.^45 The following equation was used to describe the time-dependent change of single-cell DNR accumulation:
where x is time; y is the normalized fluorescence signal obtained by dividing the intracellular concentrations by the extracellular DNR concentrations; a is the y-axis value that will reach when the time x is sufficiently large (this value is called pre-exponential factor that is related to the cell permeability coefficient p of drug uptake and the pump rate k for drug efflux); b, which is the half time when y reaches 50% of a, is given by
The curve fitting analysis was performed on the normalized fluorescence using the SAS software. […] Because of the initially large drug concentration gradient across the cell membrane, the initial cellular accumulation rate of drugs is very fast,^65 and this fast rate is shown as a short half time of ˜106 s in FIG. 13a. When the concentration gradient became smaller, the drug uptake rate became slower; ultimately, the signal reached a plateau as the drug uptake rate was close to the drug efflux rate. In the presence of FTC, drug accumulation increased (FIG. 13b). This significant drug enhancement is believed to be caused by the action of FTC on the ABCG2 drug efflux pump.
In a similar manner, an experiment was conducted by treating a 22Rv1 cell by 3 μM of OG-PTX, followed by OG-PTX-loaded FTC40 of μM, as shown in FIGS. 13c and 13d.

WBC [4] = assay: Single-cell DNR accumulation in white blood cell (WBC); format: cell-based, mouse; settings: 35 μM DNR alone, FIG. 12c
Protocol: as §1
On the other hand, in a similar experiment conducted on the WBC (FIG. 12c), the cell was not stained by the anti-Pgp antibody, indicating it is not a PCa cell.

22Rv1 cells [5] = assay: Trypan blue treatment of single 22Rv1 cell (cell viability); format: cell-based, human
Excerpt: This dye was used to check if the cell membrane was compromised after the exposure to the various conditions, as a measure of cell viability.

WBC [6] = assay: Trypan blue treatment of WBC; format: cell-based, mouse; settings: after high DNR accumulation, FIG. 12 f3
22Rv1 cells [7] = format: cell-based, human
Protocol: as §1
As shown in FIG. 11a (solid line), the fluorescence signal of the DNR was 630±77. After adding different concentrations of FTC, the signals were enhanced. Similar experiments were performed by adding different concentrations of OG-PTX (FIG. 11a: dashed line). Therefore, the optimal fluorescence signals were obtained after treating the single cells with both anti-cancer drugs in the presence of 40 μM of FTC.
Obvious enhancement in fluorescent intensity (at 585 nm) was observed (i.e., 2.8±0.3, 4.4±0.5, 4.9±0.5 fold-increase (p<0.0001). After washing the cell, anti-P-gp was applied. The fluorescence signal (524 nm) increased from 265±70 to 615±72 cps, confirming that the PCa cell was cancerous.
One of the key requirements for the effectiveness of chemotherapy is the sufficient delivery of chemotherapeutic drug into the cancer cell.^66-69 As mentioned, drug resistance due to MDR activity is due to the function of ABC transporters that reduce intracellular drug accumulation. […] Similar results were obtained after applying OG-PTX in the presence of same MDR inhibitors (FIG. 15a: black solid line & FIG. 15b: gray solid line) (3.0±0.2, 3.1±0.2, 3.1±0.2, and 2.9±0.2, 2.9±0.2, 3.0±0.2 of fold-increase, respectively). […] On the other hand, after accumulation of DNR in the presence of MDR inhibitors, DNR was more effectively retained in MDR cells following removal of MDR inhibitors, particularly FTC from single MDR-treated cell (FIG. 14b: black dashed line).

22Rv1 cells [8] = settings: 22Rv1 cells treated by FTC (25 μM); cited from earlier work
leukemia cells = settings: simultaneous administration of verapamil & CsA and MK-571; cited from earlier work
[9] = Step 2: 3 μM OG-PTX + 40 μM FTC

## COc1cccc2c1C(=O)c1c(O)c3c(c(O)c1C2=O)C[C@@](O)(C(C)=O)C[C@@H]3O[C@H]1C[C@H](N)[C@H](O)[C@H](C)O1 [DNR, Daunorubicin]
22Rv1 cells [1]; 3.5 μM DNR
  corrected signal of DNR (Fi): 100±37 cps
22Rv1 cells [1]; 7 μM DNR
  corrected signal of DNR (Fi): 290±39 cps
22Rv1 cells [1]; 14 μM DNR
  corrected signal of DNR (Fi): 260±41 cps
22Rv1 cells [1]; 35 μM DNR alone for 4000 s (negative control), three successive values, FIG. 14a dotted line
  fold-increase in DNR accumulation: 1.1±0.1 fold and 1.2±0.1 fold
22Rv1 cells [1]; 35 μM DNR only (negative control), FIG. 9a bottom curve
  fold-increase in fluorescence: 1.3±0.2 fold and 1.3 fold
22Rv1 cells [1]; 35 μM DNR
  corrected signal of DNR (Fi): 535±92 cps and 530±42 cps
22Rv1 cells [1]; 70 μM DNR
  corrected signal of DNR (Fi): 550±47 cps
22Rv1 cells [1]; 350 μM DNR
  corrected signal of DNR (Fi): 1280±50 cps
22Rv1 cells [1]; before adding FTC, FIG. 11a solid line
  fluorescence signal of the DNR: 630±77
22Rv1 cells [2]; single 22Rv1 cell isolated from WBCs, successive MDR inhibitor treatments not given, FIG. 12a
  fold-increase in fluorescent intensity (at 585 nm), DNR accumulation: 3.3±0.3 fold and 4.5±0.5 fold and 5.4±0.5 fold
22Rv1 cells [3]; 35 μM DNR only, FIG. 13a
  half time to reach the plateau: ~106 s
22Rv1 cells [3]; Step 1: 35 μM DNR only
  a1 (pre-exponential factor, normalized fluorescence plateau): 1.0±0.3
  b1: 0.010 ± 0.003 s⁻¹
WBC [4]
  DNR accumulation behaviour in WBC: continued to rise; also recorded: continuous increase in drug accumulation
22Rv1 cells [5]; single 22Rv1 cell after 35 μM DNR, DEP capture and xenon lamp excitation, FIG. 9c
  cell viability by trypan blue: viable
22Rv1 cells [5]; single 22Rv1 cells after 35 μM DNR or 3 μM OG-PTX in the presence of 40 μM FTC, FIG. 13
  trypan blue staining (cell membrane integrity): no cell staining
WBC [6]
  trypan blue staining of WBC: staining by trypan blue

## COc1ccc2c3c([nH]c2c1)[C@H](C=C(C)C)N1C(=O)[C@@H]2CCCN2C(=O)[C@@H]1C3 [FTC, fumitremorgin C]
22Rv1 cells [2]; 35 μM DNR + 40 μM FTC, FIG. 13
  fold-increase for DNR accumulation, based on curve fitting: 3.4±0.2 fold
22Rv1 cells [2]; 35 μM DNR + 40 μM FTC, after 1000 s of adding inhibitor, three successive values, FIG. 14a solid line
  fold-increase in DNR accumulation: ~3.7±0.2 fold and ~3.8±0.2 fold
22Rv1 cells [2]; 35 μM DNR, FTC removed after 2000 s, three successive values, FIG. 14a dashed line
  fold-increase in DNR accumulation after removing inhibitor: 3.8±0.2 fold and 3.2±0.2 fold and 2.7±0.2 fold
22Rv1 cells [2]; 35 μM DNR, after adding 40 μM FTC, FIG. 9a top curve
  fold-increase in DNR accumulation signal: 3.5±0.3 fold
22Rv1 cells [2]; FTC, followed by CsA, then FTC+CsA on the same cell, FIG. 14c
  fold-increase in DNR accumulation, average of 6 individual cell experiments: 3.7±0.4 fold
22Rv1 cells [2]; single 22Rv1 cell, DNR and OG-PTX accumulation, FIG. 11
  MDR inhibitor concentration giving the optimal fluorescence signal: 40 µM
22Rv1 cells [7]; 3 μM OG-PTX + 40 μM FTC, FIG. 13
  fold-increase for OG-PTX accumulation, based on curve fitting: 2.4±0.4 fold
22Rv1 cells [7]; 3 μM OG-PTX + 40 μM FTC, three successive values, FIG. 15a solid line
  fold-increase in OG-PTX accumulation: 3.0±0.2 fold and 3.1±0.2 fold
22Rv1 cells [7]; 3 μM OG-PTX, FTC removed, three successive values, FIG. 15a dashed line
  fold-increase in OG-PTX accumulation after removing inhibitor: 2.7±0.2 fold and 1.65±0.2 fold and 1.4±0.2 fold
22Rv1 cells [7]; FTC, followed by CsA, then FTC+CsA on the same cell, FIG. 15c
  fold-increase in OG-PTX accumulation, average of 6 individual cell experiments: 2.7±0.3 fold
22Rv1 cells [3]; 3 μM OG-PTX + 40 μM FTC, FIG. 13d
  half-time to reach plateau: 24 s
22Rv1 cells [3]; 35 μM DNR + 40 μM FTC, FIG. 13b
  half time to reach the plateau: 346 s
22Rv1 cells [3]; [9]
  a2 (pre-exponential factor, normalized fluorescence plateau): 2.4±0.4
  b2: 0.003 ± 0.008 s⁻¹
22Rv1 cells [3]; Step 2: 35 μM DNR + 40 μM FTC
  a2 (pre-exponential factor, normalized fluorescence plateau): 3.4±0.2
  b2: 0.004 ± 0.002 s⁻¹
22Rv1 cells [8]
  fold accumulation of D-luciferin: 2.0 fold

## COc1ccc(CCN(C)CCCC(C#N)(c2ccc(OC)c(OC)c2)C(C)C)cc1OC (stereo not shown) [verapamil]
Leukemia cells
  intracellular levels of [3H]-azacytidine: increase

## CN(C)C(=O)CCSC(SCCC(=O)O)c1cccc(/C=C/c2ccc3ccc(Cl)cc3n2)c1 (stereo not shown) [MK-571]
Leukemia cells
  intracellular levels of [3H]-azacytidine: increase

## Oregon Green® 488-conjugated paclitaxel [OG-PTX]
22Rv1 cells [1]; 0.3 μM OG-PTX
  corrected signal of OG-PTX: 60±48 cps
22Rv1 cells [1]; 1.5 μM OG-PTX
  corrected signal of OG-PTX: 100±52 cps
22Rv1 cells [1]; 3 μM OG-PTX alone for 4000 s (negative control), three successive values, FIG. 15a dotted line
  fold-increase in OG-PTX accumulation: 1.1±0.1 fold and 1.2±0.1 fold
22Rv1 cells [1]; 3 μM OG-PTX
  corrected signal of OG-PTX: 510±88 cps and 500±55 cps
22Rv1 cells [1]; 6 μM OG-PTX
  corrected signal of OG-PTX: 1300±56 cps
22Rv1 cells [1]; 30 μM OG-PTX
  corrected signal of OG-PTX: 2900±72 cps
22Rv1 cells [7]; single 22Rv1 cell isolated from WBCs, successive MDR inhibitor treatments not given, FIG. 12b
  fold-increase in fluorescent intensity (at 585 nm), OG-PTX accumulation: 2.8±0.3 fold and 4.4±0.5 fold and 4.9±0.5 fold
22Rv1 cells [3]; 3 μM OG-PTX only, FIG. 13c
  half-time to reach plateau: 98 s
22Rv1 cells [3]; Step 1: 3 μM OG-PTX only
  a1 (pre-exponential factor, normalized fluorescence plateau): 1.0±0.1
  b1: 0.007 ± 0.006 s⁻¹
